These results are taken from patent publication US12673054B2, “Substituted nucleoside analogs as PRMT5 inhibitors” (Lupin Limited, priority 2019, dated 2026).

One assay has as its target PRMT5:MEP50 (Homo sapiens, UniProt O14744). Description: Biochemical assay, HTRF detection, inhibitory effect on PRMT5. The settings on record: biotinylated H4R3 substrate, 1 μM SAM; protocol 1 or 2 not given; read-out: IC50 (PRMT5 inhibition), activity range. On the procedure:
(§1) Inhibitory effect of compounds on PRMT5 was assessed using HTRF detection technology in biochemical assay. Biotinylated H4R3 (residues 1-21) was used as a substrate. Compounds were pre-incubated with 15-25 ng PRMT5:MEP50 per well of a 384-well plate for 30 min at room temperature in the assay buffer containing 20 mM Bicine, pH 7.6, 25 mM NaCl, 2 mM DTT, 0.01% Chicken albumin and 0.01% Tween-20. Reaction was initiated by adding 1 μM of SAM and 50 nM biotinylated H4R3. Total assay volume was 15 μL. Reaction was continued for 120 min at room temperature. Then detection solution containing Streptavidin-Eu cryptate, anti-rabbit IgG-XL-665, Histone H4R3 Dimethyl Symmetric (H4R3me2s) Polyclonal Antibody, all prepared in HTRF detection buffer was added and further incubated for 30 min at room temperature. HTRF signal was recorded in PHERAStar microplate reader. Ratio of signal obtained at 665 nm and 620 nm was used to compute the percent inhibition of compound as follows % Inhibition=100−((Test Ratio−Negative control Ratio)/(Positive control Ratio−Negative control Ratio)*100) where Positive control=PRMT5+SAM+H4R3 Negative control=PRMT5+H4R3
as §1, with “2.5” for “15-25”, “4 h” for “120 min”
(In general: Time-resolved FRET reads energy transfer from a long-lived donor to a nearby acceptor.)

For a further assay, the system named is SDMA. Put plainly: SDMA inhibition assay. Format: cell-based. Particulars: Homo sapiens, Z-138 cells, 48 h. On the procedure: Z-138 cells (ATCC, CRL-3001™) were seeded at a density of 1 million cells/well in transparent, flat bottomed tissue culture grade 48-well plates. Cells were treated with various concentration of test compounds for a period of 48 h. Cell lysate was prepared using 1×CST Lysis buffer (Cell Signaling Technology, USA) and 500 ng/well/50 μL of lysate in pH 9.6 carbonate buffer was coated on 96-well Maxisorb plate and incubated overnight at 4° C. The plate was washed twice in 1×PBS containing 0.05% Tween 20 and blocked in 1% BSA for 1 h at ambient temperature. Further, the plate was incubated first with primary antibody (anti-SDMA antibody; CST #13222s) at ambient temperature for 2 h and then with HRP-conjugated secondary antibody at ambient temperature for 1 h with 2 intermittent washing steps in between.
For luminescence based detection, HRP substrates (substrate A+ substrate B in a 1:1 proportion) were added followed by luminescence reading after 30 min in Synergy™ 2 reader (Biotek, USA).
For absorbance based detection, TMB substrate was added followed by addition of STOP solution (2N H2SO4) post colour development and absorbance (excitation 450 nm and emission 540 nm) was measured in Synergy™ 2 reader (Biotek, USA).
% inhibition of SDMA was calculated relative to the vehicle control samples containing media with 0.1% DMSO alone as per the formula below. (Avg. of Untreated Control−Avg. of Test)×100 • Avg. of Untreated control
(§2) The IC50 values of individual compounds were calculated with Non Linear Regression Analysis using Graph Pad Prism (Graph Pad software, Inc, USA).

Another assay has as its system MIA PaCa-2 cells. Put plainly: Anti-Cancer Assay (MIA PaCa-2). The settings on record: Homo sapiens, 240 h, 10 days, read-out: IC50 (inhibition of cell viability), activity range. Format: cell-based. Here is the method:
(§3) Z-138 cells were seeded at a density of 2000-3000 cells per well in culture media (IMDM+10% FBS). PANC-1 (ATCC, CRL-1469™) and MIA PaCa-2 (ATCC, CRL-1420™) cells were seeded at a density of 200-300 cells per well in culture media (DMEM+10% FBS). Cells were seeded in opaque, flat bottomed tissue culture grade 96-well plates and Z-138 cells (suspension) were seeded and treated on the same day with various concentrations of test compounds. PANC-1 and MIA PaCa-2 cells, being adherent, were kept for overnight settlement at standard cell culture conditions (37° C., 5% CO2). On the following day, cells were treated with various concentrations of test compounds. Cells were treated with test compounds for a period of 96 h, 7 days and 10 days, for Z-138 cells, PANC-1 cells and MIA PaCa-2 cells, respectively. Cell viability was assessed using CellTiterGlo™ (Promega, USA) as per manufacturer's instructions. Relative Light Units (RLU) were read in Synergy™ 2 reader (Biotek, USA). The assay measures cellular ATP as an indicator of cell viability. RLU is proportional to the number of viable cells in the respective well.
(§4) % inhibition of cell viability was calculated relative to the vehicle control samples containing media with 0.1% DMSO alone as per the formula below. (Avg. of Untreated Control−Avg. of Test)×100 • Avg. of Untreated control
as §2

Another assay relates to MIA PaCa-2 xenograft. Description: Subchronic MIA PaCa-2 xenograft model, tumor growth inhibition. The assay is classed as in vivo, Mus musculus. The settings on record: 2 mg/kg dose, female athymic nude mice. Here is the method:
Tumor size was measured with Digimatic Vernier caliper (Mitutoyo, Japan) when the tumors became palpable. Tumor volume (T. V.) is calculated by using the formula: Tumor volume (mm3)=(L×W2)/2
Where, L: Length of tumor, W: Width of tumor in millimeter Percent tumor growth inhibition (% TGI) is calculated using the formula: % TGI=[1−(Tf−Ti)/(Cf−Ci)]×100
Where, Tf and Ti, are the final and initial tumor volumes (test compound), and Cf and Ci are the final and initial mean tumor volumes (vehicle group), respectively.
Tumor fragment xenograft for pancreatic cancer cell line MIA PaCa-2 was established by implantation of tumor fragments 30-45 mm^3 subcutaneously into the right flank of female athymic nude FOXn1/J/Mus musculus mice with an age between 10-11 weeks purchased from the Jackson Laboratory, USA. All animal study proposals were reviewed and approved by the Institutional Animal Ethics Committee (IAEC) prior to initiation of experimentation.

A further assay has as its system Z-138 cells. Put plainly: Anticancer activity assay (cell viability, CellTiterGlo). Format: cell-based. The settings on record: Homo sapiens, cell line not given, read-out: IC50 (inhibition of cell viability), activity range. On the procedure:
as §3, §4, §2
(ATP-based viability assays read luminescence as a measure of living cells.)

Setting [1] is: range given with mixed units (pM to nM).
The mark [2] stands for this setting: read-out: IC50 (SDMA inhibition), activity range.

Where two headings read alike, the source gives them in different places. Where only a bound is given, the exact number is not on record here.

Chain of PRMT5:MEP50 (O14744 whole entry, the tested form may be a part): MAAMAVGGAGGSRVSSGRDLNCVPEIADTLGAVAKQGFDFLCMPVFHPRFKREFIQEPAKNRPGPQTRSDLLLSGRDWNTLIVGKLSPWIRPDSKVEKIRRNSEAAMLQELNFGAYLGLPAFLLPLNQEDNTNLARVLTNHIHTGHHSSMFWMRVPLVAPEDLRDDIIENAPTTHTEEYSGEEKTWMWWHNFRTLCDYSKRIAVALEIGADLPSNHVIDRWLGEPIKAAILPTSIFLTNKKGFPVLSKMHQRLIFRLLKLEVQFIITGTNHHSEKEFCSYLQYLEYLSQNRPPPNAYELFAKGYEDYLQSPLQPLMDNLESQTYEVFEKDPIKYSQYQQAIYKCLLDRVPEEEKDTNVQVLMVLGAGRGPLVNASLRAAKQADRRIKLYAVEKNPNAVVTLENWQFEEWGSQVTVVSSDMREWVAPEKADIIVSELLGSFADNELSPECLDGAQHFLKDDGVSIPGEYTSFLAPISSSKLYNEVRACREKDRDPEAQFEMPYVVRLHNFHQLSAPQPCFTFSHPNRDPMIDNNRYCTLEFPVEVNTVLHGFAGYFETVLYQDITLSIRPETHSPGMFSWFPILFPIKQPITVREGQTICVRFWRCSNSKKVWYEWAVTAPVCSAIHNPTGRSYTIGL
Chain of PRMT5:MEP50 (Q9BQA1 whole entry partner, the tested form may be a part): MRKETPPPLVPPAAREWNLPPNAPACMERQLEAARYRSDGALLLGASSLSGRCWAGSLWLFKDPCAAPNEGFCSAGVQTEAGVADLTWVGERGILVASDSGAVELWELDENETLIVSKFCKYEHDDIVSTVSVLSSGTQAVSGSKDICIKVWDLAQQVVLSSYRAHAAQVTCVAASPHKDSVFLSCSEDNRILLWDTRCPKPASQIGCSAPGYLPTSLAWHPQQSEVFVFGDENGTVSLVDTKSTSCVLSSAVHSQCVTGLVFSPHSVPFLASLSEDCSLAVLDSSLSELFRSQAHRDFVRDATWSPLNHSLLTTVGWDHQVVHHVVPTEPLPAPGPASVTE

Turning to `Cc1nc(N)nc2c1ccn2[C@@H]1C=C(CCc2cc(F)c3cc(Cl)c(N)nc3c2)[C@@H](O)[C@H]1O` [Example 1, (1S,2R,5R)-3-(2-(2-Amino-3-chloro-5-fluoroquinolin-7-yl)ethyl)-5-(2-amino-4-methyl-7H-pyrrolo[2,3-d]pyrimidin-7-yl)cyclopent-3-ene-1,2-diol], the values for the half-maximal inhibitory concentration (IC50) at PRMT5:MEP50, in the assay with SDMA (setting [1]) and in the assay with MIA PaCa-2 cells were 0.4 to 0.75 nM, 100 to 1000 pM and 1 to 400 pM, respectively. Moreover, the “% of tumor growth inhibition” value in the assay on MIA PaCa-2 xenograft is on record as 57%.
Regarding `Cc1nc(N)nc2c1ccn2[C@@H]1C=C(COc2cc(F)c3cc(Cl)c(N)nc3c2)[C@@H](O)[C@H]1O` [Example 2, (1S,2R,5R)-3-(((2-Amino-3-chloro-5-fluoroquinolin-7-yl)oxy)methyl)-5-(2-amino-4-methyl-7H-pyrrolo[2,3-d]pyrimidin-7-yl)cyclopent-3-ene-1,2-diol], the IC50 – broadly, the concentration that inhibits the measured activity by half – was in the range of 0.4 to 0.75 nM on PRMT5:MEP50, 1100 to 50000 pM in the assay on SDMA (setting [2]) and 401 to 30000 pM in the assay on MIA PaCa-2 cells (setting [1]).
For `Cc1nc(N)c2ccn([C@@H]3C=C(COc4cc(F)c5cc(Cl)c(N)nc5c4)[C@@H](O)[C@H]3O)c2n1` [Example 3, (1S,2R,5R)-5-(4-Amino-2-methyl-7H-pyrrolo[2,3-d]pyrimidin-7-yl)-3-(((2-amino-3-chloro-5-fluoroquinolin-7-yl)oxy)methyl)cyclopent-3-ene-1,2-diol], the values for the IC50 at PRMT5:MEP50, in the assay on SDMA (setting [2]) and in the assay on MIA PaCa-2 cells (setting [1]) were 0.4 to 0.75 nM, 1100 to 50000 pM and 401 to 30000 pM, respectively.
With `Cc1nc(N)nc2c1cnn2[C@@H]1C=C(CCc2cc(F)c3cc(Cl)c(N)nc3c2)[C@@H](O)[C@H]1O` [Example 4, (1S,2R,5R)-3-(2-(2-Amino-3-chloro-5-fluoroquinolin-7-yl)ethyl)-5-(6-amino-4-methyl-1H-pyrazolo[3,4-d]pyrimidin-1-yl)cyclopent-3-ene-1,2-diol], the IC50 on PRMT5:MEP50 was 0.4 to 0.75 nM; with SDMA (setting [1]) it was 100 to 1000 pM; in the assay with MIA PaCa-2 cells (setting [1]) it was 401 to 30000 pM.
As for `Cc1nc(N)c2ccn([C@@H]3C=C(COc4cc(C(F)F)cc5c4CNCC5)[C@@H](O)[C@H]3O)c2n1` [Example 5, (1S,2R,5R)-5-(4-Amino-2-methyl-7H-pyrrolo[2,3-d]pyrimidin-7-yl)-3-(((6-(difluoromethyl)-1,2,3,4-tetrahydroisoquinolin-8-yl)oxy)methyl)cyclopent-3-ene-1,2-diol], the IC50 on PRMT5:MEP50 was over 0.75 nM; in the assay on Z-138 cells, over 1 nM.
Consider `Cc1nc(N)c2ccn([C@@H]3C=C(CCc4cc(C(F)F)cc5c4CNCC5)[C@@H](O)[C@H]3O)c2n1` [Example 6, (1S,2R,5R)-5-(4-Amino-2-methyl-7H-pyrrolo[2,3-d]pyrimidin-7-yl)-3-(2-(6-(difluoromethyl)-1,2,3,4-tetrahydroisoquinolin-8-yl)ethyl)cyclopent-3-ene-1,2-diol], for which the IC50 on PRMT5:MEP50 is over 0.75 nM; in the assay with Z-138 cells, over 1 nM.
`Cc1nc(N)c2ccn([C@@H]3C=C(CCc4cc(F)c5cc(Cl)c(N)nc5c4)[C@@H](O)[C@H]3O)c2n1` [Example 7, (1S,2R,5R)-5-(4-Amino-2-methyl-7H-pyrrolo[2,3-d]pyrimidin-7-yl)-3-(2-(2-amino-3-chloro-5-fluoroquinolin-7-yl)ethyl)cyclopent-3-ene-1,2-diol]: the IC50 on PRMT5:MEP50 was in the range of 0.4 to 0.75 nM; with SDMA (setting [1]), 100 to 1000 pM; in the assay with MIA PaCa-2 cells, 1 to 400 pM.
With `Cc1nc(N)nc2c1ccn2[C@@H]1C=C(CCc2cc(C(F)F)c(F)c3c2CNCC3)[C@@H](O)[C@H]1O` [Example 8, (1S,2R,5R)-5-(2-Amino-4-methyl-7H-pyrrolo[2,3-d]pyrimidin-7-yl)-3-(2-(6-(difluoromethyl)-5-fluoro-1,2,3,4-tetrahydroisoquinolin-8-yl)ethyl)cyclopent-3-ene-1,2-diol], the IC50 at PRMT5:MEP50 was 0.4 to 0.75 nM; in the assay with SDMA (setting [2]), 1100 to 50000 pM; with Z-138 cells, over 1 nM.
